Data taken from PMC5407767, “Characterization and expression analysis of Galnts in developing Strongylocentrotus purpuratus embryos” (PLoS ONE, 2017).

Target: SpGalNAc-T2 (Strongylocentrotus purpuratus, UniProt A0A7M7T5A5)
Assay: GalNAc transfer to peptide acceptors, radioactivity (dpm/3hr)
Assay type: biochemical
Conditions: acceptor peptides EA2, MUC5AC, MUC5AC-3, MUC5AC-13, MUC5AC-3/-13, SpDelta, SpNotch, 37°C, donor not given

Sequence of SpGalNAc-T2 (A0A7M7T5A5 37-564): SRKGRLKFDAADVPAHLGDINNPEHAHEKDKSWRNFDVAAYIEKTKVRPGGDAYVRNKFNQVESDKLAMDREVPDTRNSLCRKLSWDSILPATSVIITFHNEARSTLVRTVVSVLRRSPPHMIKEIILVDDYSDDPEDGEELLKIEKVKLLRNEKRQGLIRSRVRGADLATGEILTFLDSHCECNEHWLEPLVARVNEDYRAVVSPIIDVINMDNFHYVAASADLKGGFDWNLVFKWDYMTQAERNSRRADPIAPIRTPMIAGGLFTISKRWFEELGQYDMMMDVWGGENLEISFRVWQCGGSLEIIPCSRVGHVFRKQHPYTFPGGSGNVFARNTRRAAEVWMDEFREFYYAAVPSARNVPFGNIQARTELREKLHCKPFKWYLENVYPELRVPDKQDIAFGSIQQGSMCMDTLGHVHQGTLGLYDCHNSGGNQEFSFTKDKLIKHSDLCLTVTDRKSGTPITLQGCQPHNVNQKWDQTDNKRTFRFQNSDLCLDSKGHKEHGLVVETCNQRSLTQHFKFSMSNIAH

**Q.** How did the “GalNAc transfer to peptide acceptors, radioactivity (dpm/3hr)” value turn out when `CC(=O)N[C@H]1[C@@H](OP(=O)(O)OP(=O)(O)OC[C@H]2O[C@@H](n3ccc(=O)[nH]c3=O)[C@H](O)[C@@H]2O)O[C@H](CO)[C@H](O)[C@@H]1O` [UDP-GalNAc] was run?
**A.** Its value is “GalNAc-T activity was observed for SpGalNAc-T1, SpGalNAc-T2, SpGalNAc-T7, SpGalNAc-T7-1, and SpGalNAc-T7-2”.
